Measured values published in PubChem BioAssay AID270 (DTP/NCI, 2004).
Values joined by “and” are separate entries in the source; they are usually repeats but may differ in a detail not shown here. Identical values can stand only once. Inconclusive results are not listed.

Tested on: BDF1 mice, s.c. Lewis lung carcinoma, T/C %
Assay: NCI In Vivo Anticancer Drug Screen. Data for tumor model Lewis Lung Carcinoma (subcutaneous) in B6D2F1 (BDF1) mice
In short: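 Transplanted tumors grown in mice; compound vs vehicle dosing; endpoint survival or tumor size; ratio T/C.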

Compound: CC1CCC(NC(=O)N(CCCl)N=O)CC1 (configuration not stated)
- T/C (endpoint: mean survival time, dose: 8.0 mg/kg/injection, schedule: Q08DX002 (ip), vehicle: saline + alcohol, higher = longer survival): 97 % of control
- T/C (endpoint: mean survival time, dose: 16.0 mg/kg/injection, schedule: Q08DX002 (ip), vehicle: saline + alcohol, higher = longer survival): 105 % of control
- T/C (endpoint: mean survival time, dose: 24.0 mg/kg/injection, schedule: Q08DX002 (ip), vehicle: saline + alcohol, higher = longer survival): 123 % of control
- T/C (endpoint: median survival time, dose: 0.5 mg/kg/injection, schedule: Q01DX001 (ip), vehicle: Klucel (hydroxypropylcellulose) (HPC), higher = longer survival): 107 % of control
- T/C (endpoint: median survival time, dose: 1.0 mg/kg/injection, schedule: Q01DX001 (ip), vehicle: Klucel (hydroxypropylcellulose) (HPC), higher = longer survival): 86 % of control
- T/C (endpoint: median survival time, dose: 1.0 mg/kg/injection, schedule: Q01DX005 (ip), vehicle: saline + alcohol, higher = longer survival): 90 % of control and 107 % of control
- T/C (endpoint: median survival time, dose: 1.0 mg/kg/injection, schedule: Q02DX009 (ip), vehicle: saline + alcohol, higher = longer survival): 106 % of control and 124 % of control
- T/C (endpoint: median survival time, dose: 2.0 mg/kg/injection, schedule: Q01DX005 (ip), vehicle: saline + alcohol, higher = longer survival): 113 % of control and 114 % of control
- T/C (endpoint: median survival time, dose: 2.0 mg/kg/injection, schedule: Q01DX009 (ip), vehicle: Klucel (hydroxypropylcellulose) (HPC), higher = longer survival): 90 % of control and 105 % of control and 120 % of control
- T/C (endpoint: median survival time, dose: 2.0 mg/kg/injection, schedule: Q01DX009 (ip), vehicle: saline with Tween-80, higher = longer survival): 91 % of control and 114 % of control
- T/C (endpoint: median survival time, dose: 2.0 mg/kg/injection, schedule: Q02DX009 (ip), vehicle: saline + alcohol, higher = longer survival): 115 % of control
- T/C (endpoint: median survival time, dose: 4.0 mg/kg/injection, schedule: Q01DX001 (ip), vehicle: Klucel (hydroxypropylcellulose) (HPC), higher = longer survival): 86 % of control
- T/C (endpoint: median survival time, dose: 4.0 mg/kg/injection, schedule: Q01DX005 (ip), vehicle: saline + alcohol, higher = longer survival): 93 % of control and 105 % of control
- T/C (endpoint: median survival time, dose: 4.0 mg/kg/injection, schedule: Q01DX009 (ip), vehicle: Klucel (hydroxypropylcellulose) (HPC), higher = longer survival): 92 % of control and 97 % of control
- T/C (endpoint: median survival time, dose: 4.0 mg/kg/injection, schedule: Q01DX009 (ip), vehicle: saline with Tween-80, higher = longer survival): 98 % of control
- T/C (endpoint: median survival time, dose: 4.0 mg/kg/injection, schedule: Q02DX009 (ip), vehicle: saline + alcohol, higher = longer survival): 90 % of control and 115 % of control
- T/C (endpoint: median survival time, dose: 6.7 mg/kg/injection, schedule: Q01DX005 (ip), vehicle: saline with Tween-80, higher = longer survival): 105 % of control and 113 % of control
- T/C (endpoint: median survival time, dose: 7.0 mg/kg/injection, schedule: Q01DX001 (ip), vehicle: saline with Tween-80, higher = longer survival): 104 % of control and 121 % of control
- T/C (endpoint: median survival time, dose: 7.5 mg/kg/injection, schedule: Q01DX001 (ip), vehicle: Klucel (hydroxypropylcellulose) (HPC), higher = longer survival): 86 % of control
- T/C (endpoint: median survival time, dose: 7.5 mg/kg/injection, schedule: Q01DX001 (ip), vehicle: saline with Tween-80, higher = longer survival): 112 % of control
- T/C (endpoint: median survival time, dose: 8.0 mg/kg/injection, schedule: Q01DX001 (ip), vehicle: Klucel (hydroxypropylcellulose) (HPC), higher = longer survival): 96 % of control
- T/C (endpoint: median survival time, dose: 8.0 mg/kg/injection, schedule: Q01DX001 (ip), vehicle: saline + alcohol, higher = longer survival): 100 % of control and 107 % of control
- T/C (endpoint: median survival time, dose: 8.0 mg/kg/injection, schedule: Q01DX005 (ip), vehicle: saline + alcohol, higher = longer survival): 118 % of control and 120 % of control
- T/C (endpoint: median survival time, dose: 8.0 mg/kg/injection, schedule: Q02DX009 (ip), vehicle: saline + alcohol, higher = longer survival): 118 % of control
- T/C (endpoint: median survival time, dose: 8.0 mg/kg/injection, schedule: Q08DX002 (ip), vehicle: saline + alcohol, higher = longer survival): 95 % of control
- T/C (endpoint: median survival time, dose: 9.0 mg/kg/injection, schedule: Q01DX001 (ip), vehicle: Klucel (hydroxypropylcellulose) (HPC), higher = longer survival): 94 % of control
- T/C (endpoint: median survival time, dose: 10.0 mg/kg/injection, schedule: Q01DX001 (ip), vehicle: Klucel (hydroxypropylcellulose) (HPC), higher = longer survival): 85 % of control and 95 % of control
- T/C (endpoint: median survival time, dose: 10.0 mg/kg/injection, schedule: Q01DX005 (ip), vehicle: saline with Tween-80, higher = longer survival): 157 % of control
- T/C (endpoint: median survival time, dose: 10.7 mg/kg/injection, schedule: Q01DX001 (ip), vehicle: saline with Tween-80, higher = longer survival): 111 % of control
- T/C (endpoint: median survival time, dose: 11.0 mg/kg/injection, schedule: Q01DX001 (ip), vehicle: saline with Tween-80, higher = longer survival): 94 % of control and 113 % of control
- T/C (endpoint: median survival time, dose: 12.0 mg/kg/injection, schedule: Q01DX001 (ip), vehicle: gum acacia, higher = longer survival): 158 % of control
- T/C (endpoint: median survival time, dose: 13.0 mg/kg/injection, schedule: Q04DX004 (ip), vehicle: saline with Tween-80, higher = longer survival): 115 % of control
- T/C (endpoint: median survival time, dose: 15.0 mg/kg/injection, schedule: Q01DX001 (ip), vehicle: Klucel (hydroxypropylcellulose) (HPC), higher = longer survival): 112 % of control
- T/C (endpoint: median survival time, dose: 16.0 mg/kg/injection, schedule: Q01DX001 (ip), vehicle: gum acacia, higher = longer survival): 112 % of control
- T/C (endpoint: median survival time, dose: 16.0 mg/kg/injection, schedule: Q01DX001 (ip), vehicle: saline + alcohol, higher = longer survival): 109 % of control
- T/C (endpoint: median survival time, dose: 16.0 mg/kg/injection, schedule: Q01DX001 (ip), vehicle: saline with Tween-80, higher = longer survival): 95 % of control and 118 % of control
- T/C (endpoint: median survival time, dose: 16.0 mg/kg/injection, schedule: Q05DX002 (ip), vehicle: gum acacia, higher = longer survival): 156 % of control
- T/C (endpoint: median survival time, dose: 16.0 mg/kg/injection, schedule: Q06DX002 (ip), vehicle: gum acacia, higher = longer survival): 121 % of control
- T/C (endpoint: median survival time, dose: 16.0 mg/kg/injection, schedule: Q07DX002 (ip), vehicle: saline with Tween-80, higher = longer survival): 83 % of control
- T/C (endpoint: median survival time, dose: 16.0 mg/kg/injection, schedule: Q08DX002 (ip), vehicle: saline + alcohol, higher = longer survival): 105 % of control
- T/C (endpoint: median survival time, dose: 16.0 mg/kg/injection, schedule: Q11DX002 (ip), vehicle: saline with Tween-80, higher = longer survival): 63 % of control
- T/C (endpoint: median survival time, dose: 16.0 mg/kg/injection, schedule: Q11DX002 (oral), vehicle: saline with Tween-80, higher = longer survival): 103 % of control
- T/C (endpoint: median survival time, dose: 18.0 mg/kg/injection, schedule: Q01DX001 (ip), vehicle: other, higher = longer survival): 118 % of control
- T/C (endpoint: median survival time, dose: 20.0 mg/kg/injection, schedule: Q01DX001 (ip), vehicle: Klucel (hydroxypropylcellulose) (HPC), higher = longer survival): 115 % of control
- T/C (endpoint: median survival time, dose: 22.0 mg/kg/injection, schedule: Q01DX005 (ip), vehicle: saline with Tween-80, higher = longer survival): 113 % of control
- T/C (endpoint: median survival time, dose: 24.0 mg/kg/injection, schedule: Q07DX002 (ip), vehicle: saline with Tween-80, higher = longer survival): 77 % of control
- T/C (endpoint: median survival time, dose: 24.0 mg/kg/injection, schedule: Q08DX002 (ip), vehicle: gum acacia, higher = longer survival): 165 % of control
- T/C (endpoint: median survival time, dose: 24.0 mg/kg/injection, schedule: Q11DX002 (ip), vehicle: saline with Tween-80, higher = longer survival): 110 % of control
- T/C (endpoint: median survival time, dose: 24.0 mg/kg/injection, schedule: Q11DX002 (oral), vehicle: saline with Tween-80, higher = longer survival): 103 % of control
- T/C (endpoint: median survival time, dose: 25.0 mg/kg/injection, schedule: Q04DX004 (ip), vehicle: saline with Tween-80, higher = longer survival): 111 % of control
- T/C (endpoint: median survival time, dose: 30.0 mg/kg/injection, schedule: Q01DX001 (ip), vehicle: Klucel (hydroxypropylcellulose) (HPC), higher = longer survival): 150 % of control
- T/C (endpoint: median survival time, dose: 30.0 mg/kg/injection, schedule: Q01DX001 (ip), vehicle: saline with Tween-80, higher = longer survival): 160 % of control
- T/C (endpoint: median survival time, dose: 32.0 mg/kg/injection, schedule: Q01DX001 (ip), vehicle: saline + alcohol, higher = longer survival): 86 % of control and 88 % of control
- T/C (endpoint: median survival time, dose: 36.0 mg/kg/injection, schedule: Q10DX002 (ip), vehicle: gum acacia, higher = longer survival): 108 % of control
- T/C (endpoint: median survival time, dose: 36.0 mg/kg/injection, schedule: Q12DX002 (ip), vehicle: gum acacia, higher = longer survival): 93 % of control
- T/C (endpoint: median survival time, dose: 60.0 mg/kg/injection, schedule: Q01DX001 (ip), vehicle: Klucel (hydroxypropylcellulose) (HPC), higher = longer survival): 90 % of control
- T/C (endpoint: median survival time, dose: 60.0 mg/kg/injection, schedule: Q01DX001 (ip), vehicle: saline with Tween-80, higher = longer survival): 112 % of control
- T/C (endpoint: median survival time, dose: 64.0 mg/kg/injection, schedule: Q01DX001 (ip), vehicle: saline + alcohol, higher = longer survival): 57 % of control
- T/C (endpoint: median survival time, dose: 128.0 mg/kg/injection, schedule: Q01DX001 (ip), vehicle: saline + alcohol, higher = longer survival): 49 % of control
- T/C (endpoint: median tumor weight (est.), dose: 2.0 mg/kg/injection, schedule: Q01DX009 (ip), vehicle: Klucel (hydroxypropylcellulose) (HPC), higher = larger tumour): 82 % of control
- T/C (endpoint: median tumor weight (est.), dose: 4.0 mg/kg/injection, schedule: Q01DX009 (ip), vehicle: Klucel (hydroxypropylcellulose) (HPC), higher = larger tumour): 51 % of control
- T/C (endpoint: median tumor weight (est.), dose: 7.0 mg/kg/injection, schedule: Q01DX001 (ip), vehicle: DMSO, higher = larger tumour): 59 % of control
- T/C (endpoint: median tumor weight (est.), dose: 7.0 mg/kg/injection, schedule: Q01DX001 (ip), vehicle: saline with Tween-80, higher = larger tumour): 90 % of control
- T/C (endpoint: median tumor weight (est.), dose: 7.0 mg/kg/injection, schedule: Q01DX001 (sc), vehicle: olive oil, sesame oil, peanut oil, higher = larger tumour): 83 % of control
- T/C (endpoint: median tumor weight (est.), dose: 7.5 mg/kg/injection, schedule: Q01DX001 (ip), vehicle: Klucel (hydroxypropylcellulose) (HPC), higher = larger tumour): 92 % of control
- T/C (endpoint: median tumor weight (est.), dose: 8.0 mg/kg/injection, schedule: Q01DX009 (ip), vehicle: Klucel (hydroxypropylcellulose) (HPC), higher = larger tumour): 3 % of control
- T/C (endpoint: median tumor weight (est.), dose: 11.0 mg/kg/injection, schedule: Q01DX001 (ip), vehicle: DMSO, higher = larger tumour): 16 % of control
- T/C (endpoint: median tumor weight (est.), dose: 11.0 mg/kg/injection, schedule: Q01DX001 (ip), vehicle: saline with Tween-80, higher = larger tumour): 56 % of control
- T/C (endpoint: median tumor weight (est.), dose: 11.0 mg/kg/injection, schedule: Q01DX001 (sc), vehicle: olive oil, sesame oil, peanut oil, higher = larger tumour): 53 % of control
- T/C (endpoint: median tumor weight (est.), dose: 12.0 mg/kg/injection, schedule: Q01DX001 (ip), vehicle: gum acacia, higher = larger tumour): 41 % of control and 50 % of control
- T/C (endpoint: median tumor weight (est.), dose: 15.0 mg/kg/injection, schedule: Q01DX001 (ip), vehicle: Klucel (hydroxypropylcellulose) (HPC), higher = larger tumour): 42 % of control
- T/C (endpoint: median tumor weight (est.), dose: 16.0 mg/kg/injection, schedule: Q01DX001 (ip), vehicle: gum acacia, higher = larger tumour): 46 % of control
- T/C (endpoint: median tumor weight (est.), dose: 16.0 mg/kg/injection, schedule: Q01DX001 (ip), vehicle: saline with Tween-80, higher = larger tumour): 71 % of control
- T/C (endpoint: median tumor weight (est.), dose: 16.0 mg/kg/injection, schedule: Q01DX001 (sc), vehicle: olive oil, sesame oil, peanut oil, higher = larger tumour): 74 % of control
- T/C (endpoint: median tumor weight (est.), dose: 24.0 mg/kg/injection, schedule: Q01DX001 (ip), vehicle: saline with Tween-80, higher = larger tumour): 31 % of control
- T/C (endpoint: median tumor weight (est.), dose: 24.0 mg/kg/injection, schedule: Q01DX001 (sc), vehicle: olive oil, sesame oil, peanut oil, higher = larger tumour): 18 % of control
- T/C (endpoint: median tumor weight (est.), dose: 30.0 mg/kg/injection, schedule: Q01DX001 (ip), vehicle: Klucel (hydroxypropylcellulose) (HPC), higher = larger tumour): 3 % of control
